Measurements from US4077949A, “Polypeptide hormones of the thymus” (Sloan-Kettering Institute for Cancer Research, priority 1975, dated 1978).
Ends that are not written are not given here.

Legend:
[1] = tested on: Thy-1(θ) antigen on mouse bone marrow cells; experiment: Cytotoxic inhibition test: induction of Thy-1(θ) antigen on bone marrow cells; format: cell-based; settings: unfractionated cells, 100 ng/ml, 18 hours
Description: (§1) Mice of the A/J, C57B1/6J, AKR/J and C58/J strains were purchased from the Jackson Laboratories (Bar Harbon, Me). A.TL-mice were bred at New York University from foundation stock. All mice were housed eight to a cage, and maintained on commercial high protein mouse pellets and acidified water.
(§2) Antibodies to TL antigen were produced by injecting live tumor cells (ASL-1) into A.TL- x C57B1/6J F.1 mice. After five semimonthly injections the animals were bled and the resultant serum pooled, absorbed with A.TL- thymus to remove autoantibodies, and stored in small aliquots at -70° C. […] Anti Thy 1-2 (0-C3H) was produced by injecting AKR/J mice with C58/J thymocytes and absorbing the resultant antiserum with AKR/J thymocytes.
Thymin I and Thymin II were isolated from bovine thymus as described. Each was dissolved in phosphate buffered saline (containing 1 mg/ml of bovine serum albumen to minimize adsorbtive losses), distributed into 2 μg lots and lyophilized. […]
Antisera to either TL or Thy-1 (0) were titered to determine the quantity of antibody which was required to kill 50% of the target cells in a standard suspension. […] The cells were then repelleted by centrifugation and a 0.075 ml aliquot of the supernatant fluid was counted in an automatic gamma spectrometer to determine the amount of Cr^51 released from the target cells. […] The RCI was calculated as follows: [formula]

[2] = tested on: neuromuscular transmission; experiment: Electromyographic assay of neuromuscular transmission in mice after injection; format: in vivo; settings: for activity of QAE-Sephadex fractions in producing neuromuscular block: fractions of Example 1, FIG. 3; for dose above which a statistically significant (P < .001) electromyographic decrement was produced / mean decrement: height of the tenth muscle action potential as % of the first: mice; for dose above which a statistically significant (P < .001) electromyographic decrement was produced: five days after dose, supramaximal nerve stimulation at 50 impulses per second; for mean decrement: height of the tenth muscle action potential as % of the first: five days after doses above threshold, 50 impulses per second, controls 94 ± 2%; for active dose range per body weight: test not specified
Protocol: To determine the neuromuscular action of Thymin I and Thymin II, the electromyographic response of mice five days after various doses of Thymin I or Thymin II is summarized in FIG. 4. Bovine serum albumin (0.5 mg/ml, 0.9% saline) was used as a protein stabilizer and controls were injected with the solvent alone.
In 15 control mice sampled at 75 sites the height of the tenth muscle action potential was 94 ± 2% (mean ± s.e.m.) of the height of the first. The mean values and s.e.m. (vertical bars) are shown for groups of 4-10 mice given various doses of Thymin I(o) and Thymin II (.quadrature.). Statistical significances of differences from the controls were calculated by Student's t-test and are shown by solid symbols (P < 0.001), half solid symbols (0.05 > P < 0.001) and open symbols (P > 0.05).
Mice were given 100 ng of Thymin I or solvent and five mice from each group were tested at various times. With supramaximal nerve stimulation at 50 impulses per second the height of the tenth muscle action potential was expressed as a percentage of the first. This change was calculated for five points in each of five to ten mice from each group. For each time point the change in Thymin-treated mice was expressed as a percentage of the change in solvent-treated control mice and the statistical significance of the difference was assessed by Student's t-test. A statistically significant (P < .001) abnormality in the electromyogram was first evident at 18 hours, was maximal at 24 hours and persisted through 5 days.
To make the determinations described in FIGS. 4 and 5, extracts were injected into test animals and neuromuscular transmission was studied after an interval of one to five days. Initially 100 g guinea pigs were injected intraperitoneally; neuromuscular transmission was studied in vitro with a preparation of the phrenic nerve and hemidiaphragm. Subsequently, 200 g rats were used; fractions were injected subcutaneously and neuromuscular transmission was assessed electromyographically. […] Female Swiss-Webster mice weighing 25-35 g were injected intraperitoneally, groups of five to ten mice being used to test each fraction. The animals were anesthetized with urethane and electromyography was performed as described. The muscle action potentials were recorded in each mouse following supramaximal nerve stimulation with ten impulses at a rate of 50 per second. Five sites were sampled in each mouse and for each group of mice the mean standard deviation and s.e.m. were calculated for the change in the height of the muscle action, potential being expressed as a percentage of the height of the first impulse.
The statistical significance of differences found were assessed by student's t-test.

[3] = tested on: TL antigen on mouse bone marrow cells; experiment: Cytotoxic inhibition test: induction of TL antigen on bone marrow cells; format: cell-based; settings: for absorption of anti TL antibody by incubated bone marrow cells: unfractionated cells, 100 ng/ml, 18 hours
Description: as §1, §2
Thymin I and Thymin II were isolated from bovine thymus as described. Each was dissolved in phosphate buffered saline (containing 1 mg/ml of bovine serum albumen to minimize adsorbtive losses), distributed into 2 μg lots and lyophilized. Each polypeptide was reconstituted in tissue culture medium at the desired concentrations just prior to use.
(§3) Bone marrow cells were obtained from the femoral marrow. Both spleen and marrow cells were teased into single cell suspensions and washed three times in RPMI 1640 medium supplemented with 10 mM Hepes and 100 U/ml of penicillin and 100 μg/ml of streptomycin. The cells were then suspended in the same medium with 10% bovine serum at a concentration of 5.0×10^6 cells/ml. One milliliter of this suspension was incubated with an appropriate dilution of thymin in 16 mm plastic petrie dishes in a humidified atmosphere containing 5% CO2 in air. At the end of the incubation the cells were washed twice and held at 4° C. at a concentration of 5.0×10^6 cells/ml in culture medium until tested for the presence of TL or Thy-1(0).
ASL-1, a TL positive, Thy 1-2 (0-C3H) positive lymphoma of A strain mice was used as the target cell in all titrations of the antisera used in these experiments, and in the cytotoxic inhibition test to be described below. The lymphoma was maintained by weekly intraperitoneal passage in A/J mice. Lymophoma cells were labelled with Cr^51 and used as target cells in the cytotoxic inhibited test.
Antisera to either TL or Thy-1 (0) were titered to determine the quantity of antibody which was required to kill 50% of the target cells in a standard suspension. The appropriate amount of antiserum was added to each well of a microtiter plate with various dilutions of the cells being tested for their antigen content. The total volume was 0.15 ml. Cells expressing the antigen against which the antiserum was directed absorbed varying amounts of the antibody, and rendered less available to react with the Cr^51 labelled target cells which were added subsequently. The concentration of antibody used was extremely critical to the sensitivity of the test. The antisera to TL or Thy-1 (0) and the cells being tested for their antigen content were incubated together at 4° C. for 90 minutes. After this incubation 50,000 target cells in a volume of […] were added and the incubation continued in the cold for an additional 30 minutes to permit the sensitization of the target cells by the remaining unabsorbed antibody. The plates were then centrifuged at 1,500 rpm for 10 minutes and the supernatant fluid removed. The pelleted cells were resuspended in 0.1 ml or RPMI 1640, containing 4% fresh rabbit serum as a source of complement, and incubated for 45 minutes at 37° C. The cells were then repelleted by centrifugation and a 0.075 ml aliquot of the supernatant fluid was counted in an automatic gamma spectrometer to determine the amount of Cr^51 released from the target cells. All assays were performed in duplicate and the results were expressed by calculating the number of cells required to reduce the relative cytotoxic index (RCI) to 0.5. The RCI was calculated as follows: [formula]

[4] = tested on: bone marrow cells (least dense BSA gradient fraction); experiment: Direct cytotoxic test (trypan blue), anti TL antiserum plus complement, bone marrow cells; format: cell-based
Protocol: as §3
(§4) Bone marrow and spleen cells were obtained by flotation in BSA gradients similar to those used by Komuro and Boyse (Lancet, 10, 39, 1964). These cells were tested for their susceptibility to anti TL and Thy-1-(0) antibodies in a direct cytotoxicity test, using the uptake of trypan blue as a measure of cell death.

[5] = tested on: spleen cells (least dense BSA gradient fraction); experiment: Direct cytotoxic test (trypan blue), anti TL antiserum plus complement, spleen cells; format: cell-based, mouse; settings: 20 ng/ml for two hours
Protocol: as §3, §4

[6] = Thymin I compared with Thymin II
[7] = single injection of 100 ng per mouse

Which results are given for “GQFLEDPSVLTKEKLKSELVANNVTLPAGEQRKDVYVQLYLQHLTAVKR [Thymin I, H2 -gly-gln-phe-leu-glu-asp-pro-ser-val-leu-thr-lys-glu-lys-leu-lys-ser-glu-leu-val-ala-asn-asn-val-thr-leu-pro-ala-gly-glu-gln-arg-lys-asp-val-tyr-val- gln-leu-tyr-leu-gln-his-leu-thr-ala-val-lys-arg-cooh]”?
absorption of anti Thy-1(θ) antibody by incubated bone marrow cells [1]: absorbed antibodies; relative activity on neuromuscular transmission [2, 6]: slightly more active; activity of QAE-Sephadex fractions in producing neuromuscular block [2]: active in producing neuromuscular block; dose above which a statistically significant (P < .001) electromyographic decrement was produced [2]: above 4 ng/mouse; mean decrement: height of the tenth muscle action potential as % of the first [2]: 84%; time at which abnormality in the electromyogram was maximal [2, 7]: 24 h; time through which abnormality in the electromyogram persisted [2, 7]: ≥ 5 days; time at which abnormality in the electromyogram was first evident ([2]; single injection of 100 ng per mouse, P < .001): 18 h; active dose range per body weight [2]: above 0.1 mg/kg of body weight; active concentration as a fraction of that of the Bach et al. preparation [3]: approximately one thousandth; relative potency in inducing TL and Thy-1(θ) antigens [3, 6]: slightly more potent; concentration giving maximal induction of TL and Thy-1(θ) antigens ([3]; bone marrow cells): 2 ng/mL; lowest concentration producing a measurable (detectable) response ([3]; bone marrow cells): 20 pg/mL; absorption of anti TL antibody by incubated bone marrow cells [3]: absorbed antibodies; death of bone marrow cells caused by anti TL antiserum plus complement ([4]; 20 ng/ml for two hours, least dense fraction): 21%; highest cell death values obtained in other experiments ([4]; anti TL antiserum plus complement, tissue not specified): ≤ 28%; death of spleen cells caused by anti TL antiserum plus complement [5]: 18%

Which results are given for “H2 n-ser-gln-phe-leu-glu-asp-pro-ser-val-leu-thr-lys-glu-lys-leu-lys-ser-glu- leu-val-ala-asn-asn-val-thr-leu-pro-ala-gly-glu-gln-arg-lys-asp-val-tyr-val-gln-leu-tyr-leu-gln-thr-leu-thr-ala-val-lys-arg-cooh [Thymin II]”?
absorption of anti Thy-1(θ) antibody by incubated bone marrow cells [1]: absorbed antibodies; activity of QAE-Sephadex fractions in producing neuromuscular block [2]: active in producing neuromuscular block; dose above which a statistically significant (P < .001) electromyographic decrement was produced [2]: above 32 ng/mouse; mean decrement: height of the tenth muscle action potential as % of the first [2]: 82%; active dose range per body weight [2]: above 0.1 mg/kg of body weight; absorption of anti TL antibody by incubated bone marrow cells [3]: absorbed antibodies
